From PubChem BioAssay (NCI) come the findings set out here.

Each structure is given as a SMILES string.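 Cultured in 96-well plates, cells were exposed to test compound for 48 hours across five concentrations. TGI: total growth inhibition.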

Among the test systems are A549 NSCLC; CAKI-1 renal; HL-60(TB) leukemia; HT29 colon; LOX IMVI melanoma; M14 melanoma; MALME-3M melanoma; MCF7 breast; MDA-MB-231 breast; MDA-N; NCI-H23 lung; NCI-H522 lung; OVCAR-8 ovarian; RPMI-8226 leukemia; RXF 393 renal; SF-539 CNS; U251 CNS; UACC-257 melanoma; SR leukemia.
What all share (assay): NCI-60 cell line screen, 48 h

`O=C1c2c(ccc3c2CCC3)CC12Cc1ccccc1C2`: the TGI in the experiment with A549 NSCLC was above 100 µM; in the experiment with CAKI-1 renal it was 43.6 µM; with HL-60(TB) leukemia it was 34.9 µM; with HT29 colon, 47.1 µM; in the experiment on LOX IMVI melanoma, 31 µM; in the experiment on M14 melanoma, above 100 µM. Further, the TGI in the experiment on MALME-3M melanoma is 54 µM; with MCF7 breast, above 100 µM; in the experiment on MDA-MB-231 breast, 71.3 µM; in the experiment on MDA-N, 90.5 µM; in the experiment with NCI-H23 lung it was above 100 µM; with NCI-H522 lung it was 73.7 µM. In addition, the TGI in the experiment on OVCAR-8 ovarian is above 100 µM; in the experiment on RPMI-8226 leukemia, 44.3 µM; in the experiment on RXF 393 renal it was 40.4 µM; in the experiment with SF-539 CNS it was 74.8 µM; in the experiment on U251 CNS, above 100 µM; in the experiment with UACC-257 melanoma it was 57.4 µM.

For the molecule `C#Cc1cc(Br)c(OC(=O)C(C)(C)C)c(-c2cc(C#C)cc(Br)c2OC(=O)C(C)(C)C)c1`, the TGI in the experiment on A549 NSCLC was above 100 µM; in the experiment on CAKI-1 renal, above 100 µM; with HL-60(TB) leukemia, 30.3 µM; in the experiment with HT29 colon, above 100 µM; with LOX IMVI melanoma, 49.1 µM; with M14 melanoma, above 100 µM. In addition, the TGI in the experiment on MALME-3M melanoma, in the experiment with MCF7 breast, in the experiment on MDA-MB-231 breast, in the experiment with MDA-N, with NCI-H23 lung and in the experiment on NCI-H522 lung was above 100 µM throughout. Also, the TGI with OVCAR-8 ovarian was above 100 µM; in the experiment on RPMI-8226 leukemia, 46.4 µM; with RXF 393 renal, 46.7 µM; in the experiment with SF-539 CNS it was above 100 µM; in the experiment with U251 CNS, above 100 µM; in the experiment with UACC-257 melanoma, above 100 µM.

`Oc1c(Br)cc(/C=C/c2cccc(/C=C/c3cc(Br)c(O)c(Br)c3)n2)cc1Br`: the TGI in the experiment on A549 NSCLC was found to be 14.9 µM; in the experiment with CAKI-1 renal it was 45.6 µM; in the experiment on HT29 colon, 25.1 µM; in the experiment with LOX IMVI melanoma, 28.8 µM; in the experiment on M14 melanoma, 34.9 µM; in the experiment with MCF7 breast it was 42.5 µM. The TGI in the experiment with MDA-MB-231 breast was 49.4 µM; in the experiment on MDA-N, 39.6 µM; in the experiment on OVCAR-8 ovarian, 41.7 µM; with RPMI-8226 leukemia, 27.5 µM; with SF-539 CNS, 26.6 µM; with SR leukemia, 18.9 µM. The TGI with U251 CNS was found to be 21.2 µM; in the experiment with UACC-257 melanoma, 37.2 µM.

For `COc1cc2c(cc1OC)C(=O)C1(C2)[C@H](c2ccccc2)C2C(=O)c3cc(OC)c(OC)cc3C2[C@H]1c1ccccc1` (stereo not given in full), the TGI in the experiment with A549 NSCLC was above 100 µM; with CAKI-1 renal, 0.648 µM; with HL-60(TB) leukemia it was above 100 µM; in the experiment on HT29 colon it was above 100 µM; with LOX IMVI melanoma, above 100 µM; in the experiment with M14 melanoma, above 100 µM. Also, the TGI in the experiment with MALME-3M melanoma, in the experiment on MDA-MB-231 breast, in the experiment on MDA-N, with NCI-H23 lung, with NCI-H522 lung and in the experiment on OVCAR-8 ovarian was above 100 µM each time. Further, the TGI in the experiment with RPMI-8226 leukemia, with RXF 393 renal, in the experiment with SF-539 CNS, with SR leukemia, in the experiment on U251 CNS and in the experiment on UACC-257 melanoma was above 100 µM in each case.

As for `Oc1cc(N2CCCC2)ccc1/C=N/N1C(=S)N(c2ccccc2)C(=Nc2ccccc2)C1=Nc1ccccc1`, the TGI in the experiment on A549 NSCLC, in the experiment with CAKI-1 renal, with HT29 colon, in the experiment with M14 melanoma, in the experiment on MALME-3M melanoma and in the experiment with MCF7 breast was above 100 µM each time. For the same molecule, the TGI is 90.3 µM in the experiment on MDA-MB-231 breast; above 100 µM with MDA-N; above 100 µM in the experiment on NCI-H23 lung; above 100 µM with NCI-H522 lung; above 100 µM in the experiment with OVCAR-8 ovarian; above 100 µM in the experiment with RPMI-8226 leukemia. Further, the TGI was 46.1 µM in the experiment with RXF 393 renal; above 100 µM in the experiment with SF-539 CNS; above 100 µM in the experiment with SR leukemia; above 100 µM in the experiment with U251 CNS; above 100 µM with UACC-257 melanoma.

Take `Cn1c2ccccc2c(=O)c2cccc(C(=O)NCC(=O)O)c21`: the TGI in the experiment on A549 NSCLC, with HT29 colon, in the experiment with LOX IMVI melanoma, in the experiment with M14 melanoma, in the experiment with MALME-3M melanoma and in the experiment on MCF7 breast was above 100 µM throughout. The TGI in the experiment on MDA-MB-231 breast, in the experiment with MDA-N, with NCI-H23 lung, with OVCAR-8 ovarian, in the experiment on RPMI-8226 leukemia and with SF-539 CNS was above 100 µM in each case. Moreover, the TGI in the experiment on SR leukemia, in the experiment with U251 CNS and in the experiment with UACC-257 melanoma was above 100 µM in each case.

For `Clc1ccc(OCc2nnc3sc(-c4ccc(-c5ccc(Cl)cc5Cl)o4)nn23)cc1`, the TGI in the experiment on A549 NSCLC, in the experiment on CAKI-1 renal, in the experiment with HL-60(TB) leukemia, in the experiment with HT29 colon, in the experiment on LOX IMVI melanoma and in the experiment on M14 melanoma was above 100 µM throughout. The TGI in the experiment with MALME-3M melanoma, with MDA-MB-231 breast, in the experiment with MDA-N, in the experiment with NCI-H23 lung, with NCI-H522 lung and in the experiment with OVCAR-8 ovarian was above 100 µM throughout. For the same molecule, the TGI in the experiment with RPMI-8226 leukemia is above 100 µM; in the experiment with RXF 393 renal it was 54 µM; with SR leukemia it was above 100 µM; in the experiment with U251 CNS it was above 100 µM; in the experiment with UACC-257 melanoma, above 100 µM.

As to `CCN(CC)C(=S)SC(C(=O)Nc1nnc(-c2ccccc2)o1)c1ccccc1` (stereo not given), the TGI in the experiment on A549 NSCLC worked out at 35.7 µM; in the experiment on CAKI-1 renal it was 50 µM; in the experiment with HT29 colon, 41.8 µM; in the experiment with LOX IMVI melanoma, 17 µM; in the experiment on M14 melanoma, 42 µM; with MALME-3M melanoma it was 62 µM. Moreover, the TGI in the experiment on MCF7 breast is 47.7 µM; in the experiment with MDA-MB-231 breast, above 100 µM; with MDA-N it was 36.5 µM; in the experiment on NCI-H23 lung it was 34.2 µM; in the experiment on NCI-H522 lung, 49.2 µM; in the experiment with OVCAR-8 ovarian, above 100 µM. Also, the TGI is above 100 µM with RPMI-8226 leukemia; 39.8 µM in the experiment on RXF 393 renal; 65.9 µM in the experiment with SF-539 CNS; 70.7 µM in the experiment on SR leukemia; 61.4 µM with U251 CNS; 74.5 µM in the experiment on UACC-257 melanoma.
